Assay results published in the CheMixHub ionic liquid set.
± gives the uncertainty stated by the source.

Test: xn = mol fraction of the nth substance listed

CCCC[N+](CCCC)(CCCC)CCCC.[Br-] + CCCCCCCCCCCCOS(=O)(=O)[O-].[Na+] + O
viscosity [mPa·s], 100 kPa
Details	x2 = 1.81e-06, x1 = 0.0001802	x2 = 3.61e-06, x1 = 0.0001802	x2 = 5.42e-06, x1 = 0.0001802	x2 = 7.23e-06, x1 = 0.0001802	x2 = 9.04e-06, x1 = 0.0001802	x2 = 1.084e-05, x1 = 0.0001802	x2 = 1.265e-05, x1 = 0.0001802	x2 = 1.446e-05, x1 = 0.0001802	x2 = 1.627e-05, x1 = 0.0001802	x2 = 1.807e-05, x1 = 0.0001802
293.15 K	1.023 ± 0.027	1.024 ± 0.027	1.026 ± 0.027	1.027 ± 0.027	1.028 ± 0.027	1.029 ± 0.027	1.029 ± 0.027	1.03 ± 0.027	1.03 ± 0.027	1.03 ± 0.027
298.15 K	0.916 ± 0.027	0.919 ± 0.027	0.92 ± 0.027	0.921 ± 0.027	0.922 ± 0.027	0.922 ± 0.027	0.923 ± 0.027	0.924 ± 0.027	0.924 ± 0.027	0.925 ± 0.027
303.15 K	0.8 ± 0.027	0.801 ± 0.027	0.802 ± 0.027	0.802 ± 0.027	0.803 ± 0.027	0.803 ± 0.027	0.803 ± 0.027	0.803 ± 0.027	0.804 ± 0.027	0.804 ± 0.027
308.15 K	0.72 ± 0.026	0.721 ± 0.026	0.722 ± 0.026	0.723 ± 0.026	0.724 ± 0.026	0.724 ± 0.026	0.724 ± 0.026	0.725 ± 0.026	0.725 ± 0.026	0.725 ± 0.026
313.15 K	0.654 ± 0.026	0.655 ± 0.026	0.656 ± 0.026	0.657 ± 0.026	0.657 ± 0.026	0.657 ± 0.026	0.657 ± 0.026	0.657 ± 0.026	0.657 ± 0.026	0.658 ± 0.026
318.15 K	0.6 ± 0.026	0.601 ± 0.026	0.601 ± 0.026	0.601 ± 0.026	0.602 ± 0.026	0.602 ± 0.026	0.602 ± 0.026	0.602 ± 0.026	0.602 ± 0.026	0.603 ± 0.026

NCCO + CCCC[n+]1ccn(C)c1.F[P-](F)(F)(F)(F)F
101 kPa, x1 = 1
Details	electrical conductivity [S/m]	viscosity [mPa·s]
288.15 K	0.00163 ± 1e-05	31 ± 12
293.15 K	0.00189 ± 1e-05	23.7 ± 9.5
298.15 K	0.00227 ± 1e-05	–
303.15 K	0.00272 ± 1e-05	–
308.15 K	0.00321 ± 1e-05	–
313.15 K	0.00357 ± 1e-05	–
318.15 K	0.00622 ± 1e-05	8.1 ± 3.2
323.15 K	0.00689 ± 1e-05	–

CC[n+]1ccn(C)c1.COS(=O)(=O)[O-] + CN1CCCC1=O
101 kPa
Details	viscosity [mPa·s]
298.15 K, x2 = 0.8502	4.99 ± 0.79
303.15 K, x2 = 0.3825	28 ± 4
303.15 K, x2 = 0.5291	17.6 ± 2.6
303.15 K, x2 = 0.9298	2.91 ± 0.5
308.15 K, x1 = 0.0115	1.52 ± 0.31
308.15 K, x2 = 0.6518	9.5 ± 1.4
308.15 K, x2 = 0.718	6.8 ± 1
313.15 K, x2 = 0.0861	38.1 ± 5.4

CCCC[N+](CCCC)(CCCC)CCCC.[Br-] + CCCCCCCCCCCC[N+](C)(C)C.[Br-] + O
viscosity [mPa·s], 100 kPa
Details	x2 = 5.422e-05, x1 = 0.0001802	x2 = 0.0001084, x1 = 0.0001801	x2 = 0.0001626, x1 = 0.0001801	x2 = 0.0002169, x1 = 0.0001801	x2 = 0.0002711, x1 = 0.0001801	x2 = 0.0003252, x1 = 0.0001801	x2 = 0.0003794, x1 = 0.0001801	x2 = 0.0004336, x1 = 0.0001801	x2 = 0.0004878, x1 = 0.0001801	x2 = 0.000542, x1 = 0.0001801
293.15 K	1.056 ± 0.027	1.057 ± 0.027	1.059 ± 0.027	1.061 ± 0.027	1.061 ± 0.027	1.062 ± 0.027	1.062 ± 0.027	1.063 ± 0.027	1.063 ± 0.027	1.063 ± 0.027
298.15 K	0.939 ± 0.027	0.942 ± 0.027	0.943 ± 0.027	0.945 ± 0.027	0.946 ± 0.027	0.946 ± 0.027	0.948 ± 0.027	0.949 ± 0.027	0.95 ± 0.027	0.951 ± 0.027
303.15 K	0.824 ± 0.027	0.825 ± 0.027	0.826 ± 0.027	0.826 ± 0.027	0.827 ± 0.027	0.827 ± 0.027	0.828 ± 0.027	0.828 ± 0.027	0.828 ± 0.027	0.828 ± 0.027
308.15 K	0.742 ± 0.027	0.744 ± 0.027	0.745 ± 0.027	0.746 ± 0.027	0.746 ± 0.027	0.746 ± 0.027	0.747 ± 0.027	0.747 ± 0.027	0.747 ± 0.027	0.747 ± 0.027
313.15 K	0.675 ± 0.027	0.676 ± 0.027	0.677 ± 0.027	0.677 ± 0.027	0.678 ± 0.027	0.678 ± 0.027	0.678 ± 0.027	0.678 ± 0.027	0.678 ± 0.027	0.679 ± 0.027
318.15 K	0.62 ± 0.026	0.621 ± 0.026	0.621 ± 0.027	0.621 ± 0.026	0.622 ± 0.026	0.622 ± 0.026	0.622 ± 0.026	0.622 ± 0.026	0.622 ± 0.026	0.623 ± 0.026

CCCCCC[n+]1ccn(C)c1.[Br-] + CC#N
viscosity [mPa·s], 101 kPa
Details	288.15 K	298.15 K	308.15 K	318.15 K
x1 = 0.004174	0.403 ± 0.009	0.364 ± 0.008	0.333 ± 0.007	0.306 ± 0.007
x1 = 0.008131	0.424 ± 0.009	0.383 ± 0.008	0.35 ± 0.007	0.322 ± 0.007
x1 = 0.01172	0.424 ± 0.009	0.389 ± 0.008	0.371 ± 0.008	0.342 ± 0.007

CC(=O)[O-].C[NH+]1CCOCC1 + CC(=O)[O-].Cn1cc[nH+]c1
Details	electrical conductivity [S/m]
298.15 K, 100 kPa, x2 = 0.71	0.274 ± 0.0055

CCCCn1cc[n+](C)c1.[Cl][Fe-]([Cl])([Cl])[Cl] + CCOC(C)=O
101 kPa
Details	viscosity [mPa·s]
293.15 K, x1 = 0.6001	16.31 ± 0.67
298.15 K, x1 = 0.7973	26.3 ± 1.1
298.15 K, x1 = 0.9	34.2 ± 1.4
303.15 K, x1 = 0.6001	12.31 ± 0.51
303.15 K, x1 = 0.7973	22.35 ± 0.93
308.15 K, x1 = 0.1999	1.86 ± 0.08
308.15 K, x1 = 0.3999	5.26 ± 0.22
308.15 K, x1 = 0.6001	10.84 ± 0.45
308.15 K, x1 = 0.7973	19.21 ± 0.8
308.15 K, x1 = 1	31.9 ± 1.3
313.15 K, x1 = 0.1999	1.75 ± 0.07
313.15 K, x1 = 0.7973	16.68 ± 0.69
318.15 K, x1 = 0.3007	2.76 ± 0.11
318.15 K, x1 = 0.3999	4.34 ± 0.18
318.15 K, x1 = 0.9	18.34 ± 0.77

CCCCCCCCOS(=O)(=O)[O-].CC[n+]1ccn(C)c1 + O + O=S(=O)([O-])[O-].[K+].[K+]
101 kPa, frequency 0.0005 MHz, x2 = 0.7992, x3 = 0.000271
Details	electrical conductivity [S/m]
283.15 K	0.565 ± 0.034
285.15 K	0.611 ± 0.037
288.15 K	0.685 ± 0.041
291.15 K	0.763 ± 0.046
293.15 K	0.818 ± 0.049
298.15 K	0.965 ± 0.058
303.15 K	1.13 ± 0.068
313.15 K	1.49 ± 0.09
323.15 K	1.91 ± 0.12
333.15 K	2.43 ± 0.15
343.15 K	2.94 ± 0.18
353.15 K	3.49 ± 0.21
358.15 K	3.81 ± 0.23
363.15 K	4.13 ± 0.25

101 kPa, x2 = 0.7992, x3 = 0.000271
Details	viscosity [mPa·s]
298.15 K	70.4 ± 1.6
303.15 K	54.1 ± 1.2
308.15 K	42.26 ± 0.93
318.15 K	26.98 ± 0.59
328.15 K	18.12 ± 0.4
338.15 K	12.69 ± 0.28

CCC[P+](c1ccccc1)(c1ccccc1)c1ccccc1.[Br-] + OCCO
100 kPa, x2 = 0.9756
Details	viscosity [mPa·s]
303.15 K	20.5 ± 0.8
313.15 K	17.1 ± 0.7
323.15 K	14 ± 0.6
333.15 K	11.6 ± 0.5
343.15 K	10 ± 0.4
353.15 K	9.1 ± 0.4

CCCCCC[n+]1ccn(C)c1.[I-] + [I-].[Li+]
101 kPa, frequency 0.03 MHz, x1 = 0.59
Details	electrical conductivity [S/m]
288.1 K	0.000226 ± 1.4e-05
293 K	0.000466 ± 2.8e-05
298.1 K	0.000891 ± 5.3e-05
308.1 K	0.0032 ± 0.00019
313 K	0.00537 ± 0.00032
318.1 K	0.00863 ± 0.00052

viscosity [mPa·s], 101 kPa
Details	298.1 K	303 K	308.1 K	328.1 K	368.1 K
x1 = 0.59	15200 ± 1900	–	4263 ± 450	–	–
x1 = 1	–	1175 ± 100	–	213 ± 15	38.5 ± 2.5

Cn1ccnc1 + CC(=O)[O-].CC[n+]1ccn(C)c1 + CCOC(C)=O
298.15 K, 101 kPa
Details	electrical conductivity [S/m]	viscosity [mPa·s]
x2 = 0, x1 = 0.5	–	0.93 ± 0.02
x2 = 0.09996, x1 = 0.45	0.259 ± 0.005	1.32 ± 0.03
x2 = 0.2001, x1 = 0.4	0.444 ± 0.009	2.05 ± 0.05
x2 = 0.3, x1 = 0.35	0.61 ± 0.012	3.17 ± 0.07
x2 = 0.3995, x1 = 0.3003	0.724 ± 0.014	5.06 ± 0.11
x2 = 0.5003, x1 = 0.2498	0.795 ± 0.016	7.59 ± 0.17
x2 = 0.598, x1 = 0.201	0.776 ± 0.016	12.8 ± 0.3
x2 = 0.7028, x1 = 0.1486	0.697 ± 0.014	21.4 ± 0.5
x2 = 0.8002, x1 = 0.09992	0.578 ± 0.012	37.1 ± 1
x2 = 0.8978, x1 = 0.0511	0.452 ± 0.009	67.4 ± 2.2

CC(C)C[C@H](N)C(=O)[O-].CCCC[P+](CCCC)(CCCC)CCCN + O
333.15 K, 101 kPa, x2 = 0
Details	electrical conductivity [S/m]	viscosity [mPa·s]
–	0.0413 ± 0.00083	130.5 ± 7.4
